Results reported in patent publication US8389680B2, “Treatment of Aspergillus infections with alpha thymosin peptides” (SciClone Pharmaceuticals, Inc., priority 2003, dated 2013).
Entries after “also recorded” stand apart in the source; their conditions may differ.

Tests used:
human TLR2 = biological target: T1, human TLR2 (Homo sapiens, UniProt O60603); assay: IL-8 production by TLR2-transfected HEK293 cells; assay type: cell-based
T1 construct: expressed in transfected cells; host or cells: HEK293
T1 sequence (O60603 21-784): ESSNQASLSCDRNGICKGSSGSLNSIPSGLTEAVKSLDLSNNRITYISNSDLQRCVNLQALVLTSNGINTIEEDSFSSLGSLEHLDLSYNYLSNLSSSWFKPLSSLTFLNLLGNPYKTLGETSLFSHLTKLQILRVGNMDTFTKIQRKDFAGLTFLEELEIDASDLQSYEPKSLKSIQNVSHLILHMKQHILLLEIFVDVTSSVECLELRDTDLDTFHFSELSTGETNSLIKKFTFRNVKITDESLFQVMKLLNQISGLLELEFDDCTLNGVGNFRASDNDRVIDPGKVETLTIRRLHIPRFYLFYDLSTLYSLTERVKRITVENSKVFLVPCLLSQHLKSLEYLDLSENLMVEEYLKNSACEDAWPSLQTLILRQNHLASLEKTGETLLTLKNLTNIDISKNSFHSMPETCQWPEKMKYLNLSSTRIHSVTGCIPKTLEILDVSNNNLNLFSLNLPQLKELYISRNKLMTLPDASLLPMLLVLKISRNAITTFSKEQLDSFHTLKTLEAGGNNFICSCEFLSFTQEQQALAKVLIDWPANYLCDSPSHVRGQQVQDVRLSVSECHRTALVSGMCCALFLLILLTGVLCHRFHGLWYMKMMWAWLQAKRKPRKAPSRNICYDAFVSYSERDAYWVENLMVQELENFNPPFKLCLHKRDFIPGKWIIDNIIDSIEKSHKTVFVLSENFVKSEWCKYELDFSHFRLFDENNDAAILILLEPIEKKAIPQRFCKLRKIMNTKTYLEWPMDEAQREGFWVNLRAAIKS
Experimental: The human embryonic kidney cell line HEK293, wild type or stably transfected with human TLR2, TLR9 and TLR4/CD1427 were cultured in low glucose Dulbecco's modified Eagle's medium supplemented with 10% FCS, HEPES ([…]), L-glutamine ([…]), and gentamycin (50 microgram/ml). Transfectants were additionally supplemented with puromycin (100 microgram/ml). For stimulation experiments, cells were cultured at a density of 3 to 5×10^5 cells/wells in 12-well tissue culture plates overnight. Cells were washed and stimulated with 100 ng/ml TA1 either alone or together with TLR ligands for 5 h before the assessment of IL-8 production in the supernatants.
The levels of TNF-alpha, IL-10, IL-12 p70, IFN-alpha and IL-8 in culture supernatants were determined by Kit ELISAs. The detection limits (pg/ml) of the assays were <3 (human) and <32 (murine) for TNF-alpha, <12 (murine) and <5 (human) for IL-10, <16 (murine) and <3 (human) for IL-12 p70 and <25 (human) IL-8. For human IFN-alpha <3 ng/ml. For enumeration of cytokine-producing cells, an ELISPOT assay was used on purified CD4^+ T cells and DCs from lungs.

A. fumigatus = assay: BMT mice with invasive aspergillosis: survival, fungal growth in lungs (chitin assay), lung histology; assay type: in vivo
Description: For infection with A. fumigatus, mice were intranasally injected for 3 consecutive days with a suspension of 2×10^7 conidia/20 microliter saline. For the quantification of fungal growth in the lungs, the chitin assay was used. The chitin content was expressed as micrograms of glucosamine per organ. The glucosamine content of lungs from uninfected mice was used as a negative control ranging between 0.80 and 2.25 microgram glucosamine/organ. For histological analysis, lungs were excised and immediately fixed in formalin. Sections (3 to 4 micron) of paraffin-embedded tissues were stained with the periodic acid-Schiff procedure. Thymosin alpha 1 (TA1) and the scrambled polypeptide are as purified sterile lyophilized acetylated polypeptides with endotoxin levels less than 0.03 pg/ml, by a standard limulus lysate assay. The sequences were as follows: Ac-[…]O (Thymosin alpha 1, SEQ ID NO.: 1) and Ac-[…]OH ([…]). Their lyophilized powders were reconstituted in sterile water.
The treatments were as follows; in BMT-mice, TA1, at different doses administered intraperitoneally, sthymosin alpha 1, 400 microgram/kg administered intraperitoneally or human recombinant G-CSF 250 microgram/kg administered intravenously, were given daily beginning the day of the BM infusion, in concomitance with the infection and continuing for an additional 3 days. Amphotericin B was given daily for 3 days in concomitance with the infection, at a dose of 4000 microgram/kg, administered intraperitoneally. This dose would cure IA in cyclophosphamide-treated mice. Cyclophosphamide, 150 mg/kg administered intraperitoneally, was given a day before the infection. In cyclophosphamide-treated mice, 400 microgram/kg TA1 was given intraperitoneally for 5 consecutive days beginning the day of the infection.
C57BL6 mice were exposed to a lethal dose of 9 Gy and infused with T cell-depleted donor cells from BALB/c mice.

[1] = tested on: lymphocytes and neutrophils; assay: Myeloid and Th1 cell recovery in BMT mice with IA; assay type: in vivo
Description: The treatments were as follows; in BMT-mice, TA1, at different doses administered intraperitoneally, sthymosin alpha 1, 400 microgram/kg administered intraperitoneally or human recombinant G-CSF 250 microgram/kg administered intravenously, were given daily beginning the day of the BM infusion, in concomitance with the infection and continuing for an additional 3 days. Amphotericin B was given daily for 3 days in concomitance with the infection, at a dose of 4000 microgram/kg, administered intraperitoneally. This dose would cure IA in cyclophosphamide-treated mice. Cyclophosphamide, 150 mg/kg administered intraperitoneally, was given a day before the infection. In cyclophosphamide-treated mice, 400 microgram/kg TA1 was given intraperitoneally for 5 consecutive days beginning the day of the infection. Cell surface phenotype was assessed by reacting samples with FITC- or PE-conjugated rat anti-mouse antibodies. Unrelated hisotype matched antibodies were used as control. The levels of TNF-alpha, IL-10, IL-12 p70, IFN-alpha and IL-8 in culture supernatants were determined by Kit ELISAs. The detection limits (pg/ml) of the assays were <3 (human) and <32 (murine) for TNF-alpha, <12 (murine) and <5 (human) for IL-10, <16 (murine) and <3 (human) for IL-12 p70 and <25 (human) IL-8. For human IFN-alpha <3 ng/ml. For enumeration of cytokine-producing cells, an ELISPOT assay was used on purified CD4^+ T cells and DCs from lungs. Proliferation of lung CD4^+ T lymphocytes stimulated with 10 microgram/ml Con A or heat inactivated conidia in the presence of lung DCs, was assessed by labeling with CFSE 5(6)-carboxyfluorescein diacetate succinimidyl ester.

[2] = mice treated with both agents (TA1 and amphotericin B)
[3] = BMT mice, cytofluorimetric analysis

## Ac-Ser-Asp-Ala-Ala-Val-Asp-Thr-Ser-Ser-Glu-Ile-Thr-Thr-Lys-Asp-Leu-Lys-Glu-Lys-Lys-Glu-Val-Glu-Glu-Ala-Glu-Asn-O (Ac-SDAAVDTSSEITTKDLKEKKEVEEAEN-OH) [TA1, naturally occurring thymic peptide]
Human TLR2; TA1 alone
  production of IL-8: did not stimulate
Human TLR2; in response to zymosan
  production of IL-8: potentiated; also recorded: slightly increased
A. fumigatus; 200 and 400 microgram/kg TA1, amphotericin B 4000 microgram/kg
  protection compared with amphotericin B: superior to that of amphotericin B
A. fumigatus; 200 microgram/kg TA1
  survival (full protection): > 60 days
A. fumigatus; 400 microgram/kg TA1
  survival (full protection): > 60 days
A. fumigatus; BMT mice with IA
  fungal growth in the lungs: dose-responsive reduction; also recorded: reduced fungal growth
  survival: increased survival
A. fumigatus; BMT mice with IA, different doses
  effect on protection, dose relation: dose-dependent
A. fumigatus; intraperitoneally, daily
  cure of BMT mice with IA: complete cure; also recorded: able to cure
A. fumigatus; lung sections, periodic acid-Schiff
  lung pathology: decreases lung pathology
A. fumigatus; mice treated with both agents
  effect on therapeutic efficacy of amphotericin B: increases the therapeutic efficacy of amphotericin B
A. fumigatus; [2]
  fungal burden: decreased fungal burden
  survival: increased survival
[1]; BMT mice treated with TA1
  frequency of Th1 cells (producing IFN-gamma): increased; also recorded: higher
  frequency of Th2 cells (producing IL-4): decreased; also recorded: lower
  function of lung CD4+ T lymphocytes (antigen-specific proliferation and IFN-gamma production): functionally active
[1]; [3]
  number of lung CD4+ cells: increase; also recorded: significantly increased
  number of lung CD8+ cells: increase; also recorded: significantly increased
  number of lung neutrophils: significantly increased
[1]; BMT mouse model, TA1 treatment after Aspergillus infection
  total neutrophils: increase
[1]; after TA1 treatment
  absolute number of circulating lymphocytes: significantly increases
  absolute number of circulating neutrophils: significantly increases
